Read-outs that look alike come from different tables or passages of the source.
Key:
gel-filtered platelets = test: In vitro inhibition of thrombin-induced gel-filtered platelet aggregation; format: cell-based; details: human gel-filtered platelets, agonist thrombin 50 μL of 1 unit/mL, read-out: Thrmb IC50 (Thrombin-induced aggregation of gel-filtered platelets)
Description: In Vitro Inhibition of Thrombin-Induced Gel-Filtered Platelet Aggregation Assay
The percentage of platelet aggregation is calculated as an increase in light transmission of compound-treated platelet concentrate vs. control-treated platelet concentrate. Human blood is obtained from drug free, normal donors in tubes containing 0.13M sodium citrate. Platelet rich plasma (PRP) is collected by centrifugation of whole blood at 200×g for 10 min at 25° C. The PRP (5 mL) is gel filtered through Sepharose 2B (bed volume 50 mL), and the platelet count is adjusted to 2×10^7 platelets per sample. The following constituents are added to a siliconized cuvette: concentrated platelet filtrate and Tyrode's buffer (0.14M NaCl, 0.0027M KCl, 0.012M NaHCO3, 0.76 mM Na2HPO4, 0.0055M glucose, 2 mg/mL BSA and 5.0 mM HEPES @ pH 7.4) in an amount equal to 350 μL 50 μL of 20 mM calcium and 50 μL of the test compound. Aggregation is monitored in a BIODATA aggregometer for the 3 min following the addition of agonist (thrombin 50 μL of 1 unit/mL).
(§1) Table 7 contains IC50 values (μM) of the compounds in a thrombin receptor binding assay, and IC50 values (μM) against platelet aggregation stimulated by thrombin.

[1] = target: T1, thrombin receptor (PAR-1) (Homo sapiens, UniProt P25116); test: In vitro thrombin receptor binding assay (CHRF membranes); details: tritiated 721-40 radioligand, read-out: Bndg IC50 (Thrombin receptor binding)
T1 construct: CHRF membranes (Jones, Biochim. Biophys. Acta 1992, 1136, 272) are thawed from −70° C; endogenous in cells; host or cells: CHRF cell membranes
T1 sequence (P25116 22-425): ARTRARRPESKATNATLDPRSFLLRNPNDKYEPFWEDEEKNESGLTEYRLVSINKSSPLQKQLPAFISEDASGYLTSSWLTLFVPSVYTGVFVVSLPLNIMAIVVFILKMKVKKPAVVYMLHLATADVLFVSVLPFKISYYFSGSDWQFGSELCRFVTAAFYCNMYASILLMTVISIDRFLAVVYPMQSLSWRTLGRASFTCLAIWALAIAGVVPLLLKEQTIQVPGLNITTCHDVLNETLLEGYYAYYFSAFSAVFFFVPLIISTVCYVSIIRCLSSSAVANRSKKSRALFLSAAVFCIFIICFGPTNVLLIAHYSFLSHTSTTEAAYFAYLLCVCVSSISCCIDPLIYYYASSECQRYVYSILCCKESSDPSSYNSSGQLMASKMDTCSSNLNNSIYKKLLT
Description: In Vitro Thrombin Receptor Binding Assay
CHRF membranes (Jones, Biochim. Biophys. Acta 1992, 1136, 272) are thawed from −70° C., centrifuged at maximum speed for 5 min, washed twice with binding buffer (50 mM HEPES containing 5 mM MgCl2 and 0.1% BSA), and re-suspended in binding buffer (25 μg/[…]). 100 μL of membranes are added to the 24-Wallac plates and delivered to the Tomtech apparatus. In a typical experiment, 6 μL of samples (from a 125 μg/mL intermediary plate, 20% DMSO) and 44 μL buffer are delivered to the plates (final conc. of compounds is 3.7 μg/mL, 0.6% DMSO). Similarly, 6 μL 20% DMSO and 44 μL buffer are delivered to both column 1 (NSB) and column 12 (TB). 10 μL Ser-pFPhe-Har-Leu-Har-Lys-Tyr-NH2 (721–40; 500 μM in deionized water) is added to column 1. 50 μL tritiated 721–40 (specific activity 46 Ci/mmol) is added to all the wells. The plates are mixed well for 20 seconds, incubated for 30 min,and then harvested with 10 mM HEPES/138 mM NaCl using the Skatron harvester. The filters (GF/C Brandel FPXLR 296) are presoaked 3 h in 0.5% polyethylenimine in HEPES/0.1M N-acetylglucosamine) are set in saran wrap and dried for 3 min in the microwave, and placed in sample bags (Wallac 1450-432). 4.5 mL scintillation fluid (Wallac, Betaplate Scint 1205-440) is added. The bags are sealed, placed in filter cassettes (Wallac 1450-104), and analyzed on the microbeta counter.
as §1

SMILES	IC50 (gel-filtered platelets; Platelet) [µM]	IC50 [1] [µM]	IC50 (gel-filtered platelets) [µM]
Cc1ccccc1Cn1cc(CN2CCCC2)c2ccc(NC(=O)N[C@@H](Cc3cccnc3)C(=O)N[C@@H](CCCNC(=N)N)C(=O)NCc3ccccc3)cc21 [Compound 31]	> 10	8.4	–
COc1ccc(C[C@H](NC(=O)Nc2ccc3c(CN(C)CCCN(C)C)cn(Cc4ccc(F)cc4)c3c2)C(=O)N[C@@H](CCCNC(=N)N)C(=O)NCc2ccccc2)cc1 [Compound 32]	48.6	7.3	–
COc1ccc(C[C@H](NC(=O)Nc2ccc3c(CNCCCN4CCCC4)cn(Cc4ccc(F)cc4)c3c2)C(=O)N[C@@H](CCCNC(=N)N)C(=O)NCc2ccccc2)cc1 [Compound 33]	54.7	5.4	–
C=CCOc1ccc(C[C@H](NC(=O)Nc2ccc3c(CN4CCCC4)cn(Cc4cccc(C)c4)c3c2)C(=O)N[C@@H](CCCNC(=N)N)C(=O)NCc2ccccc2)cc1 [Compound 34]	16.3	9.7	–
CCN(CC)Cc1cn(Cc2ccccc2C)c2cc(NC(=O)N[C@@H](Cc3ccc(N)cc3)C(=O)N[C@@H](CCCNC(=N)N)C(=O)NCc3ccccc3)ccc12 [Compound 35]	13	13.1	–
Cc1ccccc1Cn1cc(CN2CCCC2)c2ccc(NC(=O)N[C@@H](Cc3ccc(OCc4ccccc4)cc3)C(=O)N[C@@H](CCCN=C(N)N)C(=O)NCc3ccccc3)cc21 [Compound 36]	6.8	16.7	–
Cc1ccccc1Cn1cc(CN2CCCC2)c2ccc(NC(=O)N[C@@H](Cc3cccc4ccccc34)C(=O)N[C@@H](CCCNC(=N)N)C(=O)NCc3ccccc3)cc21 [Compound 37]	4.4	20.3	–
N=C(N)NCCC[C@H](NC(=O)[C@H](Cc1ccc2ccccc2c1)NC(=O)Nc1ccc2c(CN3CCCC3)cn(Cc3c(Cl)cccc3Cl)c2c1)C(=O)NCc1ccccc1 [Compound 38]	2.5	33.5	–
Cc1ccccc1Cn1cc(CN2CCCC2)c2ccc(NC(=O)N[C@@H](Cc3ccc(-c4ccccc4)cc3)C(=O)N[C@@H](CCCNC(=N)N)C(=O)NCc3ccccc3)cc21 [Compound 39]	3.5	21.5	–
COc1ccc(C[C@H](NC(=O)Nc2ccc3c(CN4CCOCC4)cn(Cc4ccc(F)cc4)c3c2)C(=O)N[C@@H](CCCN=C(N)N)C(=O)NCc2ccccc2)cc1 [Compound 40]	> 10	3.9	–
CCCN(CCC)Cc1cn(Cc2c(Cl)cccc2Cl)c2cc(NC(=O)N[C@@H](Cc3ccc(OC)cc3)C(=O)N[C@@H](CCCNC(=N)N)C(=O)NCc3ccccc3)ccc12 [Compound 41]	4.8	10.4	–
CCOc1ccc(C[C@H](NC(=O)Nc2ccc3c(CN4CCCC4)cn(Cc4cccc(C)c4)c3c2)C(=O)N[C@@H](CCCNC(=N)N)C(=O)NCc2ccccc2)cc1 [Compound 42]	24.7	2	–
CCN(CC)Cc1cn(Cc2cccc(C)c2)c2cc(NC(=O)N[C@@H](Cc3ccc(OC(C)C)cc3)C(=O)N[C@@H](CCCNC(=N)N)C(=O)NCc3ccccc3)ccc12 [Compound 43]	33.5	5	–
COc1ccc(C[C@H](NC(=O)Nc2ccc3c(CN4CCC4)cn(Cc4ccc(F)cc4)c3c2)C(=O)N[C@@H](CCCNC(=N)N)C(=O)NCc2ccccc2)cc1 [Compound 44]	9.7	3.3	–
COc1ccc(C[C@H](NC(=O)Nc2ccc3c(CNC4CC4)cn(Cc4ccc(F)cc4)c3c2)C(=O)N[C@@H](CCCNC(=N)N)C(=O)NCc2ccccc2)cc1 [Compound 45]	> 10	13.9	–
N=C(N)NCCC[C@H](NC(=O)[C@H](Cc1ccc(F)c(F)c1)NC(=O)Nc1ccc2c(CN3CCCC3)cn(Cc3c(Cl)cccc3Cl)c2c1)C(=O)NCc1ccccc1 [Compound 46, L-Argininamide, 3,4-difluoro-N-[[[1-[(2,6-dichlorophenyl)methyl]-3-(1-pyrrolidinylmethyl)-1H-indol-6-yl]amino]carbonyl]-L-phenylalanyl-N-(phenylmethyl)-]	–	0.47	0.28
N=C(N)NCCC[C@H](NC(=O)[C@H](Cc1cccc(F)c1)NC(=O)Nc1ccc2c(CN3CCCC3)cn(Cc3c(Cl)cccc3Cl)c2c1)C(=O)NCc1ccccc1 [Compound 47]	0.88	1.2	–
Cc1ccccc1Cn1cc(CN2CCCC2)c2ccc(NC(=O)N[C@@H](Cc3ccc(Cl)cc3)C(=O)N[C@@H](CCCNC(=N)N)C(=O)NCc3ccccc3)cc21 [Compound 48]	0.5	7.6	–
N=C(N)NCCC[C@H](NC(=O)[C@H](Cc1ccc([N+](=O)[O-])cc1)NC(=O)Nc1ccc2c(CN3CCCC3)cn(Cc3ccc(F)cc3)c2c1)C(=O)NCc1ccccc1 [Compound 49]	6.1	1	–
Cc1ccccc1Cn1cc(CN2CCCC2)c2ccc(NC(=O)N[C@@H](Cc3c(F)c(F)c(F)c(F)c3F)C(=O)N[C@@H](CCCNC(=N)N)C(=O)NCc3ccccc3)cc21 [Compound 50]	0.8	7.6	–
N=C(N)NCCC[C@H](NC(=O)[C@H](Cc1ccccc1F)NC(=O)Nc1ccc2c(CN3CCCC3)cn(Cc3c(Cl)cccc3Cl)c2c1)C(=O)NCc1ccccc1 [Compound 51]	0.68	0.8	–
N#Cc1ccc(C[C@H](NC(=O)Nc2ccc3c(CN4CCCC4)cn(Cc4c(Cl)cccc4Cl)c3c2)C(=O)N[C@@H](CCCNC(=N)N)C(=O)NCc2ccccc2)cc1 [Compound 52]	0.48	5.3	–
N=C(N)NCCC[C@H](NC(=O)[C@H](Cc1cscn1)NC(=O)Nc1ccc2c(CN3CCCC3)cn(Cc3c(Cl)cccc3Cl)c2c1)C(=O)NCc1ccccc1 [Compound 53]	1	8.8	–
Cc1ccccc1Cn1cc(CN2CCCC2)c2ccc(NC(=O)N[C@@H](Cc3cccc(C(F)(F)F)c3)C(=O)N[C@@H](CCCNC(=N)N)C(=O)NCc3ccccc3)cc21 [Compound 54]	0.5	16	–
N=C(N)NCCC[C@H](NC(=O)[C@H](Cc1ccc(F)c(F)c1)NC(=O)Nc1ccc2c(CN3CCCC3)cn(Cc3ccccc3Cl)c2c1)C(=O)NCc1ccccc1 [Compound 55]	0.34	11.3	–
N=C(N)NCCC[C@H](NC(=O)[C@@H](NC(=O)Nc1ccc2c(CN3CCCC3)cn(Cc3c(Cl)cccc3Cl)c2c1)C(c1ccccc1)c1ccccc1)C(=O)NCc1ccccc1 [Compound 56]	3.8	11.4	–
Cc1ccccc1Cn1cc(CN2CCCC2)c2ccc(NC(=O)N[C@@H](Cc3ccc(F)c(F)c3)C(=O)N[C@@H](CCCNC(=N)N)C(=O)NCCc3ccccc3)cc21 [Compound 57]	1.8	0.3	–
CCCCN(CCCC)Cc1cn(Cc2ccccc2C)c2cc(NC(=O)N[C@@H](Cc3cc(F)cc(F)c3)C(=O)N[C@@H](CCCNC(=N)N)C(=O)NCc3ccccc3)ccc12 [Compound 58]	> 10	1.5	–
N=C(N)NCCC[C@H](NC(=O)[C@H](Cc1ccc(F)c(F)c1)NC(=O)Nc1ccc2c(CN3CCCC3)cn(Cc3c(Cl)cccc3Cl)c2c1)C(=O)NCc1ccc(F)cc1 [Compound 59]	0.88	0.14	–
N=C(N)NCCC[C@H](NC(=O)[C@H](Cc1ccc(F)c(F)c1)NC(=O)Nc1ccc2c(CN3CCCC3)cn(Cc3ccc(F)cc3)c2c1)C(=O)NC(c1ccccc1)c1ccccc1 [Compound 60]	0.93	2.8	–
